# Data: US20230067159A1, “ROR-GAMMA-T INHIBITOR, PREPARATION METHOD THEREOF AND USE THEREOF” (priority 2020, published 2023)
# Like-named read-outs stand apart in the source and are kept apart here.
# Target: T1, RORγ (Homo sapiens, UniProt P51449)
# T1 construct: The concentration of B-RORγ LBD was 40 nM
# T1 sequence (P51449 269-508 limits assumed): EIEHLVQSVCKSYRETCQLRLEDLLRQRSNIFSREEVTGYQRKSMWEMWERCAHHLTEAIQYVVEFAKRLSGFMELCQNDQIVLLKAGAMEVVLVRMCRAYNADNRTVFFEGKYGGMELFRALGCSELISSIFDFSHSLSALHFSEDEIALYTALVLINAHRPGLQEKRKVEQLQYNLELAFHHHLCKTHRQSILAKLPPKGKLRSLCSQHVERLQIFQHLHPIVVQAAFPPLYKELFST
# Test: Fluorescence resonance energy transfer (FRET) test, B-RORγ LBD / Biotin-SRC1
# Format: biochemical
# Description: Biological Example 1 Fluorescence Resonance Energy Transfer (FRET) Test
# (1) Preparation of RORγ Test Buffer and 10 mM of DTT
# 100 mL of 1× Basic test buffer (HEPES (pH 7.4), 100 mM NaCl, 0.01% BSA) was prepared, and 154.25 mg of DTT was added. The mixture was well mixed.
# (2) Preparation of Compound with Gradient Concentration
# a. Standard compound was prepared: Standard compound was diluted with 100% DMSO to 2.5 mM, then diluted 3-fold with 11 serial dilutions to a final concentration of […];
# b. Test compound was prepared referring to the standard compound.
# (3) Preparation of 1× Protein Solution Mixture
# (§1) a. Preparation of the desired amount of 2× B-RORγ LBD/SA-APC protein mixture: The concentration of B-RORγ LBD was 40 nM, and the concentration of SA-APC was 20 nM. They were mixed by gently inversion, and incubated at room temperature for 15 minutes. Then 400 nM of biotin was added. The mixture was mixed by gently inversion, and incubated at room temperature for 10 minutes;
# as §1, with “b.” for “a.”, “Biotin-SRC1/SA-eu” for “B-RORγ LBD/SA-APC”, “Bioin-SRC1” for “B-RORγ LBD”, “SA-eu” for “SA-APC”, “200” for “400”
# c. The protein mixtures prepared in step a and step b were mixed at a ratio of 1:1, and incubated at room temperature for 5 minutes;
# d. 25 μL of the mixture from step c was added to the 384-well plate containing the test compound;
# e. The mixture was centrifuged at 1000 rpm for one minute;
# f. The mixture was incubated for 1 hour at room temperature.
# (4) Data Collection and Calculation
# After incubation at room temperature for 1 hour, the fluorescence values at 665 nm and 615 nm were measured with an EnVision plate reader, and the inhibition rate was calculated.
# Inhibition rate %)=[(X−Min)/(Max−Min)]×100%
# X is the fluorescence value ratio of “665/615” of the test compound; Min is the average value of “665/615” of the DMSO blank control; Max is the average value of “665/615” of the 10 μM SRC.
SMILES,IC50 [nM],"IC50 (inhibitory activity of RORγ at the molecular level, FRET 665/615, read-out: IC50) [nM]"
"CCS(=O)(=O)c1ccc([C@H](CO)NC(=O)c2ccc(N3CCC(Cc4ccc(C(F)(F)F)cc4)C3)cc2)cc1 (stereo partly drawn) [Example 6, N—((R)-1-(4-(ethylsulfonyl)phenyl)-2-hydroxyethyl)-4-(3-(4-(trifluoromethyl)benzyl)pyrrolidin-1-yl)benzamide]",9,–
"CCS(=O)(=O)c1ccc([C@H](CO)NC(=O)c2ccc(N3C[C@H](Oc4ccc(C(F)(F)F)cc4)C[C@H]3CN3CCOC[C@@H]3C)cc2)cc1 [Example 35, N—((R)-1-(4-(ethylsulfonyl)phenyl)-2-hydroxyethyl)-4-((2S,4R)-2-(((S)-3-methylmorpholinyl)methyl)-4-(4-(trifluoromethyl)phenoxy)pyrrolidin-1-yl)benzamide]",135,–
"CCS(=O)(=O)c1ccc([C@H](CO)NC(=O)c2ccc(N3CC[C@H](Oc4ccc(C(F)(F)F)cc4)C3)c(F)c2)cc1 [Example 79, N—((R)-1-(4-(ethylsulfonyl)phenyl)-2-hydroxyethyl)-3-fluoro-4-((S)-3-(4-(trifluoromethyl)phenoxy)pyrrolidin-1-yl)benzamide]",13,–
CCS(=O)(=O)c1ccc([C@H](CO)NC(=O)c2ccc(N3C[C@H](Oc4ccc(C(F)(F)F)cc4)C[C@H]3COCCC#N)cc2)cc1 [Example 32],19,–
"CCS(=O)(=O)c1ccc([C@H](CO)NC(=O)c2ccc(N3CC[C@H](Oc4ccc(C(F)(F)F)cc4)C3)cc2)cc1 [Example 14, N—((R)-1-(4-(ethylsulfonyl)phenyl)-2-hydroxyethyl)-4-((S)-3-(4-(trifluoromethyl)phenoxy)pyrrolidin-1-yl)benzamide]",20,–
CCS(=O)(=O)c1ccc([C@H](CO)NC(=O)c2ccc(N3C[C@H](Oc4ccc(C(F)(F)F)cc4)C[C@H]3COCCC(F)F)cc2)cc1 [Example 44],51,–
"CCS(=O)(=O)c1ccc([C@H](CO)NC(=O)c2ccc(N3C[C@H](Oc4ccc(C(F)(F)F)cc4)C[C@H]3CO[C@H]3CCOC3)cc2)cc1 [Example 33, N—((R)-1-(4-(ethylsulfonyl)phenyl)-2-hydroxyethyl)-4-((2S,4R)-2-((((S)-tetrahydrofuran-3-yl)oxy)methyl)-4-(4-(trifluoromethyl)phenoxy)pyrrolidin-1-yl)benzamide]",132,–
"CCS(=O)(=O)c1ccc([C@H](CO)NC(=O)c2ccc(N3C[C@H](Oc4ccc(C(F)(F)F)cc4)C[C@H]3COCCF)cc2)cc1 [Example 29, N—((R)-1-(4-(ethylsulfonyl)phenyl)-2-hydroxyethyl)-4-((2S,4R)-2-((2-fluoroethoxy)methyl)-4-(4-(trifluoromethyl)phenoxy)pyrrolidin-1-yl)benzamide]",10.4,–
CCC(F)(F)OC[C@@H]1C[C@H](Oc2ccc(C(F)(F)F)cc2)CN1c1ncc(C(=O)N[C@@H](CO)c2ccc(S(=O)(=O)CC)cc2)cn1 [Example 67],8,–
CCS(=O)(=O)c1ccc([C@H](CO)NC(=O)c2ccc(N3C[C@H](Oc4ccc(C(F)(F)F)cc4)C[C@H]3COCC3CC3)cc2)cc1 [Example 31],17,–
CCC(F)(F)OC[C@@H]1C[C@H](Oc2ccc(C(F)(F)F)cc2)CN1c1ccc(C(=O)N[C@@H](CO)c2ccc(S(=O)(=O)CC)cc2)cn1 [Example 55],9,–
CCOC[C@@H]1CC(Oc2ccc(C(F)(F)F)cc2)CN1c1ccc(C(=O)N[C@@H](CO)c2ccc(S(=O)(=O)CC)cc2)cc1 (some centres unmarked) [Example 20],14.1,–
"CCS(=O)(=O)c1ccc(CNC(=O)c2ccc(N3CCC(Oc4ccc(C(F)(F)F)cc4)C3)cc2)cc1 (centres unmarked) [Example 9, N-(4-(ethylsulfonyl)benzyl)-4-(3-(4-(trifluoromethyl)phenoxy)pyrrolidin-1-yl)benzamide]",11.9,–
CCS(=O)(=O)c1ccc([C@H](CO)NC(=O)c2ccc(N3C[C@@H](Oc4ccc(C(F)(F)F)cc4)C[C@H]3COC(F)F)cc2F)cc1 [Example 86],6,–
CCS(=O)(=O)c1ccc([C@H](CO)NC(=O)c2ccc(N3C[C@H](Oc4ccc(C(F)(F)F)cc4)C[C@H]3COC(C)(F)F)cc2)cc1 [Example 42],–,17.8
CCC(F)(F)OC[C@@H]1C[C@H](Oc2ccc(C(F)(F)F)cc2)CN1c1ccc(C(=O)N[C@@H](CO)c2ccc(S(=O)(=O)CC)cn2)cn1 [Example 74],11,–
CCS(=O)(=O)c1ccc([C@H](CCO)NC(=O)c2ccc(N3C[C@H](Oc4ccc(OC(F)(F)F)cc4)C[C@H]3COC(F)F)nc2)cc1 [Example 115],13,–
CCC(F)(F)OC[C@@H]1C[C@H](Oc2ccc(C(F)(F)F)cc2)CN1c1ncc(C(=O)N[C@@H](CO)c2ccc(S(=O)(=O)CC)cn2)cn1 [Example 75],12.1,–
"CCS(=O)(=O)c1ccc([C@H](CO)NC(=O)c2ccc(N3C[C@@H](Oc4ccc(C(F)(F)F)cc4)C[C@H]3COC(F)(F)F)nc2)cc1 [Example 94, N—((R)-1-(4-(ethylsulfonyl)phenyl)-2-hydroxyethyl)-6-((2S,4S)-2-((trifluoromethoxy)methyl)-4-(4-(trifluoromethyl)phenoxy)pyrrolidin-1-yl)nicotinamide]",8,–
CCS(=O)(=O)c1ccc([C@H](CO)NC(=O)c2ccc(N3C[C@@H](Oc4ccc(C(F)(F)F)cc4)C[C@H]3COC(F)F)c(F)c2)cc1 [Example 85],4.5,–
CCS(=O)(=O)c1ccc([C@H](CO)NC(=O)c2ccc(N3C[C@@H](Oc4ccc(C(F)(F)F)cc4)C[C@H]3COC(F)F)cc2OC)cc1 [Example 90],30,–
"CCS(=O)(=O)c1ccc([C@H](CO)NC(=O)c2ccc(N3CCC(Oc4ccc(C(F)(F)F)cc4)C3)cc2)cc1 (stereo partly drawn) [Example 12, N—((R)-1-(4-(ethylsulfonyl)phenyl)-2-hydroxyethyl)-4-(3-(4-(trifluoromethyl)phenoxy)pyrrolidin-1-yl)benzamide]",24,–
CCS(=O)(=O)c1ccc(CNC(=O)c2ccc(N3CCC(Cc4ccc(C(F)(F)F)cc4)C3)cc2)cc1 (centres unmarked) [Example 2],14,–
CCS(=O)(=O)c1ccc([C@@H](CO)NC(=O)c2ccc(N3C[C@@H](Oc4ccc(C(F)(F)F)cc4)C[C@H]3COC(F)F)cc2)cc1 [Example 98],17,–
CCS(=O)(=O)c1ccc([C@H](CCO)NC(=O)c2ccc(N3C[C@@H](Oc4ccc(OC(F)(F)F)cn4)C[C@H]3COC(F)F)cc2)cc1 [Example 108],6,–
CCS(=O)(=O)c1ccc([C@H](CO)NC(=O)c2ccc(N3C[C@@H](Oc4ccc(C(F)(F)F)cc4)C[C@H]3CCOC(F)F)cc2)cc1 [Example 47],4.6,–
"CCS(=O)(=O)c1ccc([C@H](CO)NC(=O)c2ccc(N3C[C@@H](Oc4ccc(C(F)(F)F)cc4)C[C@H]3COC(F)(F)F)cc2C#N)cc1 [Example 96, 2-cyano-N—((R)-1-(4-(ethylsulfonyl)phenyl)-2-hydroxyethyl)-4-((2S,4S)-2-((trifluoromethoxy)methyl)-4-(4-(trifluoromethyl)phenoxy)pyrrolidin-1-yl)benzamide]",64,–
CCS(=O)(=O)c1ccc([C@H](CO)NC(=O)c2ccc(N3C[C@H](Oc4ccc(C(F)(F)F)cc4)C[C@H]3CCOC(F)F)cc2)cc1 [Example 46],13.2,–
CCS(=O)(=O)c1ccc([C@H](CO)NC(=O)c2ccc(N3C[C@@H](Oc4ccc(C(F)(F)F)cc4)C[C@H]3COC(F)F)cc2)nc1 [Example 69],4,–
